Paper PMC4391943, “Novel Epigallocatechin-3-Gallate (EGCG) Derivative as a New Therapeutic Strategy for Reducing Neuropathic Pain after Chronic Constriction Nerve Injury in Mice” (PLoS ONE, 2015)
Where two headings read alike, the source gives them in different places.

Assays:
[1] = Hepatic, renal and hematological function serum markers in treated mice; type: in vivo, Balb/c; settings: for Hematocrit / Hemoglobin / Lymphocytes / Monocytes / Neutrophils / platelet count: Balb/c; for ALP (alkaline phosphatase), hepatic function / ALT (alanine transaminase), hepatic function / AST (aspartate transaminase), hepatic function / BUN (urea), renal function / Creatinin, renal function: Balb/c serum
[2] = design: method as in PMID 22559865; settings: daily doses of 5, 25 or 40 mg/Kg; cited from earlier work

O=C(Oc1ccc(-c2ccc(OC(=O)c3cc(O)c(O)c(O)c3)cc2)cc1)c1cc(O)c(O)c(O)c1 [Compound 30, 4,4′-Bis [(3,4,5-trihydroxybenzoyl)oxy]-1,1′-biphenyl]
Hematocrit ([1]; 50 mg/Kg): 42.4 ± 2.2% | Hemoglobin ([1]; 50 mg/Kg): 14.2 ± 0.8 g/dL | Lymphocytes ([1]; 50 mg/Kg): 51.2 ± 13.9% | Monocytes ([1]; 50 mg/Kg): 1.4 ± 0.1% | Neutrophils ([1]; 50 mg/Kg): 32.0 ± 22.9% | platelet count ([1]; 50 mg/Kg): 826 10^3/µL | ALP (alkaline phosphatase), hepatic function ([1]; 50 mg/Kg): 97.2 ± 20.3 U/L | ALT (alanine transaminase), hepatic function ([1]; 50 mg/Kg): 210.3 ± 28.2 U/L | AST (aspartate transaminase), hepatic function ([1]; 50 mg/Kg): 266.5 + 80.3 U/L | BUN (urea), renal function ([1]; 50 mg/Kg): 21.9 ± 7.5 mg/dL | Creatinin, renal function ([1]; 50 mg/Kg): 0.30 ± 0.1 mg/dL | Hematocrit ([1]; 75 mg/Kg): 38.3 ± 2.8% | Hemoglobin ([1]; 75 mg/Kg): 13.6 ± 0.3 g/dL | Lymphocytes ([1]; 75 mg/Kg): 50.2 ± 7.5% | Monocytes ([1]; 75 mg/Kg): 1.9 ± 1.4% | Neutrophils ([1]; 75 mg/Kg): 30.7 ± 8.1% | platelet count ([1]; 75 mg/Kg): 849 10^3/µL | ALP (alkaline phosphatase), hepatic function ([1]; 75 mg/Kg): 86.5 ± 30.3 U/L | ALT (alanine transaminase), hepatic function ([1]; 75 mg/Kg): 290.2 + 31 U/L | AST (aspartate transaminase), hepatic function ([1]; 75 mg/Kg): 320.3 + 45.5 U/L | BUN (urea), renal function ([1]; 75 mg/Kg): 21.1 ± 6.8 mg/dL | Creatinin, renal function ([1]; 75 mg/Kg): 0.31 ± 0.1 mg/dL | hepatic, renal and hematological function serum markers vs control ([1]; daily doses of 50 and 75 mg/Kg (S2 Table)): no significant alteration

O=C(Oc1cccc2c(OC(=O)c3cc(O)c(O)c(O)c3)cccc12)c1cc(O)c(O)c(O)c1 [Compound 23, 1,5-Bis [(3,4,5-trihydroxybenzoyl)oxy] naphthalene]
hepatic, renal and hematological function serum markers vs control [2]: no significant alteration
